The values below come from patent US20230147312A1, “TREATMENT OF ACUTE RESPIRATORY DISTRESS SYNDROME AND RELATED CONDITIONS WITH ANTAGONISTS OF E-SELECTIN” (GLYCOMIMETICS, INC., priority 2020, published 2023).

Data set [1] has as its system human umbilical vein endothelial cells (HUVEC). Particulars: cytokine treatment over 4 hours, vs Medium control; cited from earlier work.
In data set [2] the test system is human dermal microvascular endothelial cells (HDMEC). Particulars: cytokine treatment over 4 hours, vs Medium control; cited from earlier work.
Data set [3] concerns the target T1, E-selectin (Homo sapiens, UniProt P16581).
T1 sequence (P16581 22-610): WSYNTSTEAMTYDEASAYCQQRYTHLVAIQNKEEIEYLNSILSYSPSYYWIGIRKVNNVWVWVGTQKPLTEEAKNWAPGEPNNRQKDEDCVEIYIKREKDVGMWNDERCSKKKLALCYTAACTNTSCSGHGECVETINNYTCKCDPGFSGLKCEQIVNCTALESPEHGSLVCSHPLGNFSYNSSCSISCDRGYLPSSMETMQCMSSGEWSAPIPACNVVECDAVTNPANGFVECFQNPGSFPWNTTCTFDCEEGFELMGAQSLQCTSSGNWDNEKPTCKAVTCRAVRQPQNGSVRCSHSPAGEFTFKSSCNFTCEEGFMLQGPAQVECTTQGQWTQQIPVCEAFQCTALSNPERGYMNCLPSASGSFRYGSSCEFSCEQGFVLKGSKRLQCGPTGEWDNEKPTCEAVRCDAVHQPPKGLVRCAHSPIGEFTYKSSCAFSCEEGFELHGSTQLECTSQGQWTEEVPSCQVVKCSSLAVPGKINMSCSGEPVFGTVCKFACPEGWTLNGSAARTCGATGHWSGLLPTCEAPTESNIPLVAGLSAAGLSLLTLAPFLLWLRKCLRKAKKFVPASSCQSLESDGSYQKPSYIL
The experiment in a line: binding and inhibiting E-selectin.

Data set [4] relates to animals. Particulars: in vivo.
For data set [5], the system named is humans. Particulars: human, in vivo.
In data set [6] the test system is sE-selectin. Particulars: cited from earlier work.
Data set [7] deals with Human lung microvascular endothelial cells (HMVEC-L). Particulars: HMVEC-L treated with 10 μM; cited from earlier work.
Data set [8] deals with COVID-19 patients. Particulars: of six COVID-19 patients in the ICU; cited from earlier work.
For data set [9], the system named is animals. Put plainly: toxicity in animals.
The subject of data set [10] is humans. The experiment in a line: toxicity in Phase 1 clinical trials / humans.

“Also recorded” adds a separate entry of the source. Like-named read-outs stand apart in the source and are kept apart here.

For “IL-1β: cytokine used to treat endothelial cells”, the “expression of E-selectin” value in data set [1] and in data set [2] was “stimulate expression of E-selectin” throughout.

Consider `CC[C@H]1C[C@@H](C(=O)NCCNC(=O)CCOCCOCCOCCOCCOCCOCCOCCOCCOCCOCCOCCOC)C[C@@H](O[C@@H]2O[C@H](CO)[C@H](O)[C@H](O[C@@H](CC3CCCCC3)C(=O)[O-])[C@H]2NC(C)=O)[C@@H]1O[C@@H]1O[C@@H](C)[C@@H](O)[C@@H](O)[C@@H]1O.[Na+]` [GMI-1271], for which, in [3], the “antagonism of E-selectin” value is “potent antagonists of E-selectin”. Moreover, in data set [4], the toxicities entry is given as “no measurable toxicities” and the toxicity result is “no toxicity”. In [5], the toxicities entry was “no measurable toxicities” and the toxicity entry is “no toxicity”. The “sE-selectin circulating (plasma) levels” value in [6] (AML patients, after treatment, all dose groups) is “significantly (P<0.0001) reduced; also recorded: decreased over the treatment period in all dose groups”. Moreover, in data set [6] (end of 6 days of dosing concurrently with MEC chemotherapy), the “decrease of plasma soluble E-selectin from baseline to Day 8” value is on record as “highly significant (p<0.0001) with no dose response”.

In the case of TNFα, the “expression of E-selectin” value in [1] and in [2] was “stimulate expression of E-selectin” in each case.

As to `CCCCCCCCCCCCCCC(Cl)C(=O)O` (stereo not shown) [Compound 2-CIPA, 2-chloropalmitic acid], in [7], the “adherence of human neutrophils” value was “promoted neutrophil adhesion; also recorded: increases adhesion of neutrophils”.

With “tocilizimab: antibody directed against the cytokine, IL-6, approved as an anti-inflammatory drug”, in [8], the patients who died result is reported as “one”, the “patients who showed improvement” value is “three” and the patients who stabilized entry is “two”.

On to `CCCCCCCCCCCCCCCC(=O)O` [PA, palmitic acid], for which the “adherence of human neutrophils” value in data set [7] is given as “did not”.

As to `C[C@@H]1O[C@@H](O[C@@H]2[C@@H](NC(=O)c3cc(=O)[nH]c(=O)[nH]3)C[C@@H](C(=O)NCCNC(=O)COCCOCC(=O)Nc3cc(S(=O)(=O)O)cc4cc(S(=O)(=O)O)cc(S(=O)(=O)O)c34)C[C@H]2O[C@@H]2O[C@H](CO)[C@H](O)[C@H](O[C@@H](CC3CCCCC3)C(=O)O)[C@H]2OC(=O)c2ccccc2)[C@@H](O)[C@H](O)[C@@H]1O` [GMI-1070], the toxicities entry in data set [9] and in data set [10] (Phase 1 clinical trials) was “no measurable toxicities” in each case. For the same molecule, the toxicity result in [9] (relatively high concentrations) is reported as “no toxicity”; in data set [10] (humans, relatively high concentrations) it was “no toxicity”.

B1: IL-10: cytokine used to treat endothelial cells (protein, UniProt P22301 19-178, looked up)
Interleukin-10: SPGQGTQSENSCTHFPGNLPNMLRDLRDAFSRVKTFFQMKDQLDNLLLKESLLEDFKGYLGCQALSEMIQFYLEEVMPQAENQDPDIKAHVNSLGENLKTLRLRLRRCHRFLPCENKSKAVEQVKNAFNKLQEKGIYKAMSEFDIFINYIEAYMTMKIRN
In the case of B1, the “expression of E-selectin” value in [1] and in [2] was “stimulate expression of E-selectin” each time.
